Test results from ChEMBL document CHEMBL3351909, “In vitro and in vivo characterization of a benzofuran derivative, a potential anticancer agent, as a novel Aurora B kinase inhibitor” (Eur J Med Chem, 2015).
Active and inactive are the calls of the source. No cut-off for these calls is given here.

Assays:
[1] = Cytotoxicity against human SPC-A1 cells after 96 hrs by CCK-8 assay; type: functional, cell-based; conditions: SPCA1, 96 h
[2] = test system: Mus musculus; assay: Acute toxicity in mouse up to 1000 mg/kg, ip qd administered for 2 weeks; type: organism-based; design: dose 1000 mg/kg, route intraperitoneal; conditions: in vivo, 336 h
[3] = test system: CNE; assay: Cytotoxicity against human CNE cells after 96 hrs by CCK-8 assay; type: functional, cell-based
[4] = Antitumor activity against human QGY7401 cells xenografted in nude mouse assessed as reduction in tumor weight at 10 mg/kg, ip qd administered for 14 days measured on day 18 (reference value: 2.24 +/- 0.20 g); type: functional; conditions: route intraperitoneal
[5] = test system: SW-620; assay: Inhibition of colony formation in human SW620 cells after 96 hrs by crystal violet staining-based assay; type: functional, cell-based
[6] = target: Vascular endothelial growth factor receptor 3 (Homo sapiens, UniProt P35916); assay: Inhibition of recombinant FLT4 (unknown origin) after 60 mins by z'-lyte kinase assay
[7] = target: T1, Aurora kinase A (Homo sapiens, UniProt O14965); assay: Binding affinity to AURKA (unknown origin)
[8] = Cytotoxicity against human FOCUS cells after 96 hrs by CCK-8 assay; type: functional, cell-based
[9] = test system: LoVo; assay: Cytotoxicity against human LoVo cells after 96 hrs by CCK-8 assay; type: functional, cell-based
[10] = test system: SW480; assay: Cytotoxicity against human SW480 cells after 96 hrs by CCK-8 assay; type: functional, cell-based; conditions: SW480, 96 h
[11] = target: Serine/threonine-protein kinase Nek1 (Homo sapiens, UniProt Q96PY6); assay: Inhibition of recombinant NEK1 (unknown origin) after 60 mins by z'-lyte kinase assay
[12] = target: T2, Aurora kinase B (Homo sapiens, UniProt Q96GD4); assay: Inhibition of AURKB in human HepG2 cells assessed as reduction in histone H3 expression at 5 to 20 uM after 48 hrs by Western blotting analysis; type: cell-based
[13] = target: T2, Aurora kinase B; assay: Inhibition of AURKB in human SW620 cells assessed as reduction in histone H3 expression at 5 to 20 uM after 48 hrs by Western blotting analysis; type: cell-based; conditions: SW-620
[14] = Cytotoxicity against human CaSki cells after 96 hrs by CCK-8 assay; type: functional, cell-based; conditions: Ca-Ski
[15] = test system: HepG2; assay: Cytotoxicity against human HepG2 cells after 96 hrs by CCK-8 assay; type: functional, cell-based; conditions: HepG2, 96 h
[16] = target: RAC-alpha serine/threonine-protein kinase (Homo sapiens, UniProt P31749); assay: Inhibition of recombinant AKT1 (unknown origin) after 60 mins by z'-lyte kinase assay
[17] = target: T2, Aurora kinase B; assay: Inhibition of AURKB in human HeLa cells assessed as reduction in histone H3 phosphorylation at 5 to 20 uM after 48 hrs by Western blotting analysis; type: cell-based
[18] = test system: Homo sapiens; assay: Inhibition of histone H3 phosphorylation in human QGY7401 cells xenografted in ip dosed nude mouse administered qd for 14 days by Hematoxylin and eosin staining-based microscopic analysis; type: functional, organism-based
[19] = test system: Homo sapiens; assay: Inhibition of histone H3 phosphorylation in human QGY7401 cells xenografted in nude mouse at 10 to 20 mg/kg, ip qd administered for 14 days by hematoxylin and eosin staining-based microscopic analysis; type: functional, organism-based
[20] = target: T2, Aurora kinase B; assay: Inhibition of AURKB in human HepG2 cells assessed as reduction in histone H3 phosphorylation at 20 uM after 48 hrs by Western blotting analysis; type: cell-based
[21] = Cytotoxicity against human Hep3B cells after 96 hrs by CCK-8 assay; type: functional, cell-based, Hep 3B2
[22] = target: Casein kinase I isoform alpha (Homo sapiens, UniProt P48729); assay: Inhibition of recombinant CK1 alpha1 (unknown origin) after 60 mins by z'-lyte kinase assay
[23] = Cytotoxicity against human HuH7 cells after 96 hrs by CCK-8 assay; type: functional, cell-based; conditions: Huh-7, 96 h
[24] = Cytotoxicity against human HCT116 cells after 96 hrs by CCK-8 assay; type: functional, cell-based; conditions: HCT-116, 96 h
[25] = target: T1, Aurora kinase A; assay: Inhibition of recombinant AURKA (unknown origin) after 60 mins by z'-lyte kinase assay
[26] = target: T2, Aurora kinase B; assay: Inhibition of AURKB in human SW620 cells assessed as reduction in Aurora B expression expression at 5 to 20 uM after 48 hrs by Western blotting analysis; type: cell-based; conditions: SW-620
[27] = Antitumor activity against human QGY7401 cells xenografted in nude mouse assessed as inhibition of tumor growth at 20 mg/kg, ip qd administered for 14 days measured on day 18 relative to control; type: functional; conditions: route intraperitoneal, read-out: TGI
[28] = test system: HeLa; assay: Cytotoxicity against human HeLa cells after 96 hrs by CCK-8 assay; type: functional, cell-based
[29] = test system: MDA-MB-231; assay: Cytotoxicity against human MDA-MB-231 cells after 96 hrs by CCK-8 assay; type: functional, cell-based; conditions: MDA-MB-231, 96 h
[30] = test system: Mus musculus; assay: Toxicity in nude mouse xenografted with human QGY7401 cells at 10 to 20 mg/kg, ip qd administered for 14 days measured on day 18; type: organism-based; design: dose 10-20 mg/kg, route intraperitoneal; conditions: in vivo, 336 h
[31] = target: Protein kinase C alpha type (Homo sapiens, UniProt P17252); assay: Inhibition of recombinant PKC alpha (unknown origin) after 60 mins by z'-lyte kinase assay
[32] = test system: HepG2; assay: Cell cycle arrest in human HepG2 cells assessed as reduction in G1 phase at 20 uM after 48 hrs by flow cytometry relative to control; type: functional, cell-based
[33] = test system: HeLa; assay: Growth inhibition of human HeLa cells at 5 to 20 uM after 96 hrs by CCK-8 assay; type: functional, cell-based
[34] = target: Mitogen-activated protein kinase 1 (Homo sapiens, UniProt P28482); assay: Inhibition of recombinant MAPK1 (unknown origin) after 60 mins by z'-lyte kinase assay
Chain of Mitogen-activated protein kinase 1 (P28482 whole entry): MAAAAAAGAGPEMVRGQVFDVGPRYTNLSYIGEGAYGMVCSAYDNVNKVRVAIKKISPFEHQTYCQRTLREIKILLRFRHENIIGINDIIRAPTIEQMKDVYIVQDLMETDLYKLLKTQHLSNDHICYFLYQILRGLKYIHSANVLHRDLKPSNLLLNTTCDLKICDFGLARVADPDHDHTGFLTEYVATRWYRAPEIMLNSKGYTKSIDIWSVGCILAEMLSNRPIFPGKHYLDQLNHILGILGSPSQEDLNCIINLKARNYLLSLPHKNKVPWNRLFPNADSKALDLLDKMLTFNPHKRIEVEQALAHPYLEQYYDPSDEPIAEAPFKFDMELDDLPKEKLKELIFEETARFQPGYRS

T2 sequence (Q96GD4 whole entry): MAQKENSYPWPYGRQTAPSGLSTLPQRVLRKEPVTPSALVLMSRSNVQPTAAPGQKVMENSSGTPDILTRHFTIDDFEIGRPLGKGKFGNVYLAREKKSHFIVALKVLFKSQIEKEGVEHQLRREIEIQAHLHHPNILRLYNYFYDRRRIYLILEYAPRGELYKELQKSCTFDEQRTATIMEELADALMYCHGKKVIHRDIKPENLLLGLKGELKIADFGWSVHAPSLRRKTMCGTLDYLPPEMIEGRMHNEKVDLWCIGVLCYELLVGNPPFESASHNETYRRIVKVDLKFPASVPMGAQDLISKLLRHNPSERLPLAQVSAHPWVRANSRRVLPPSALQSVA
T1 sequence (O14965 whole entry): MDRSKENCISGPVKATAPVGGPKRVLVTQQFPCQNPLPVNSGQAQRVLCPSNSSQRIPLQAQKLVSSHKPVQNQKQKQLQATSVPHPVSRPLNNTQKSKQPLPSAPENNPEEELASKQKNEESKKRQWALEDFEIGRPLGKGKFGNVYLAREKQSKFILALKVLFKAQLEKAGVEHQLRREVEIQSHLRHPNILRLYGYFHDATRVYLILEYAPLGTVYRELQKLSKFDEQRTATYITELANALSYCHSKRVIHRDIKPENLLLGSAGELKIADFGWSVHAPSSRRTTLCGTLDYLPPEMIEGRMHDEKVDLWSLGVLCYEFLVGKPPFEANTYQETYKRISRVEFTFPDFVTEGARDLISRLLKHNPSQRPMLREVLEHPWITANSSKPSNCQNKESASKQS
Chain of RAC-alpha serine/threonine-protein kinase (P31749 whole entry): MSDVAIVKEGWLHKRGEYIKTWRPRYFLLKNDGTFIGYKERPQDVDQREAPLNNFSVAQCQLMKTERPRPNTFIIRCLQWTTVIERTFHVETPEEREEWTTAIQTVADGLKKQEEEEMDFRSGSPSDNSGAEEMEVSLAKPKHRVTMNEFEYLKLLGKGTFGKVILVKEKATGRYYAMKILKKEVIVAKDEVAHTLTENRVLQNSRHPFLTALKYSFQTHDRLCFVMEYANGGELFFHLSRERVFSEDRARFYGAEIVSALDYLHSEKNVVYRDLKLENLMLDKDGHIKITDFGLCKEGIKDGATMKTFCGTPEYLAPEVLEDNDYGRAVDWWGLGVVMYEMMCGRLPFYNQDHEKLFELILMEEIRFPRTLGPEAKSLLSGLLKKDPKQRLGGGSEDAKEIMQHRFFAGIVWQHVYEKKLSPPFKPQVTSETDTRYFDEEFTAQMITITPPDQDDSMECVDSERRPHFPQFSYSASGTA
Chain of Casein kinase I isoform alpha (P48729 whole entry, canonical isoform): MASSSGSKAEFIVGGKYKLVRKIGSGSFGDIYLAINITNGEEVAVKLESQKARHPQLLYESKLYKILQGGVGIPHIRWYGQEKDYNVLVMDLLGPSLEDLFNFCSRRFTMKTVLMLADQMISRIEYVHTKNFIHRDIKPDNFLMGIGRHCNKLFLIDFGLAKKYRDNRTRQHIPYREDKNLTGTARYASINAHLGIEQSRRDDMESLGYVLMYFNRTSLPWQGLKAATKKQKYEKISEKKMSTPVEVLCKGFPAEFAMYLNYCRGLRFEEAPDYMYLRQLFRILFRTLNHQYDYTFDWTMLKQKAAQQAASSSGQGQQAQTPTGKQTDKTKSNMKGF
Chain of Vascular endothelial growth factor receptor 3 (P35916 whole entry): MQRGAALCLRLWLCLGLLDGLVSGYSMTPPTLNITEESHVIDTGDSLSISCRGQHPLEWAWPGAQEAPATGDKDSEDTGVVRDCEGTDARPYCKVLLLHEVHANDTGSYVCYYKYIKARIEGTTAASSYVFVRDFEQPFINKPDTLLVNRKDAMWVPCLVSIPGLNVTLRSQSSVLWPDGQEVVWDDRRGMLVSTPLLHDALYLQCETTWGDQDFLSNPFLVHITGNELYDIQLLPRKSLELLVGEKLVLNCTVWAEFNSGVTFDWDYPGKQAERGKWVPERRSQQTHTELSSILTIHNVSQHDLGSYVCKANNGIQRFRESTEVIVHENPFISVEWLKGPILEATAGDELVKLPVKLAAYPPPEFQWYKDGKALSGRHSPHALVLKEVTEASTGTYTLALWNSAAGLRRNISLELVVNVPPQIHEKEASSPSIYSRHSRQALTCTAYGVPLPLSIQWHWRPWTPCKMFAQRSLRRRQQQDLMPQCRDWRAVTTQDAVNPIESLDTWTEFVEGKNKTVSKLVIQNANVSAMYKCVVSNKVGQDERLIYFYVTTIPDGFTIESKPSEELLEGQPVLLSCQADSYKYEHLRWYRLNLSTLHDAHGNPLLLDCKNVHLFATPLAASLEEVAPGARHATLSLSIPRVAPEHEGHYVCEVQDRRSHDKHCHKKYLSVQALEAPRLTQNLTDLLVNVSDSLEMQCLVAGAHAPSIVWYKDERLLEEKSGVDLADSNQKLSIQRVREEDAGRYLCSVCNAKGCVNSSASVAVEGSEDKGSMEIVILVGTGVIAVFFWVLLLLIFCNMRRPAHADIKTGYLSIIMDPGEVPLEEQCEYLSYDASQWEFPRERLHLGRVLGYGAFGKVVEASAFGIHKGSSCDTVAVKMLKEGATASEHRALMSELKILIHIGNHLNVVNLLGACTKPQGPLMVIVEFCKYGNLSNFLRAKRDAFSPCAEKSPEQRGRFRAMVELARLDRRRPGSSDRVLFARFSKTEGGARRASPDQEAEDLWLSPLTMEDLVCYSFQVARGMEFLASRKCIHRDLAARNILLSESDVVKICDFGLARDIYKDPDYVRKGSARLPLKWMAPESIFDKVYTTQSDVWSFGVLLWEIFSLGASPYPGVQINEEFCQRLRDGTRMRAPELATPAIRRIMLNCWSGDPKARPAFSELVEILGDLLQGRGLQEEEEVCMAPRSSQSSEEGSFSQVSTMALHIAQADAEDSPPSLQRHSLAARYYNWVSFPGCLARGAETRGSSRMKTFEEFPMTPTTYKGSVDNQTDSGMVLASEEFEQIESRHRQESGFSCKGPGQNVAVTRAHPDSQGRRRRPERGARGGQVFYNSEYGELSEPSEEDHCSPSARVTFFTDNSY

O=C1/C(=C\c2ccc(O)c(O)c2)Oc2ccccc21
IC50 [1]: 20.4 µM
Activity [2]: Non-toxic
IC50 [3]: 45.5 µM
Activity [4]: 1.71 g
inhibition [5]: Dose-dependent effect
IC50 [6]: 5.19 µM
Kd [7]: 12.9 µM
IC50 [8]: 20.7 µM
IC50 [9]: > 50 µM
IC50 [10]: 50 µM
IC50 [11]: 11.5 µM
inhibition [12]: Active
inhibition [13]: Active
IC50 [14]: > 50 µM
IC50 [15]: 8.2 µM
IC50 [16]: 38.6 µM
inhibition [17]: Active
inhibition [18]: Dose-dependent effect
inhibition [19]: Active
inhibition [20]: Active
IC50 [21]: 28.7 µM
IC50 [22]: 78.8 µM
IC50 [23]: 21.1 µM
IC50 [24]: 13.4 µM
IC50 [25]: 1.34 µM
inhibition [26]: Active
inhibition in vivo at 20 mg/kg [27]: 48.1%
IC50 [28]: 13.4 µM
IC50 [29]: > 50 µM
Activity [30]: Non-toxic
IC50 [31]: 26.8 µM
Activity [32]: Active
growth inhibition (GI) [33]: Active
IC50 [34]: 100 µM
